The source of these data is patent US9527869B2, “Indolizine derivatives as phoshoinositide 3-kinases inhibitors” (CHIESI FARMACEUTICI S.P.A., priority 2014, dated 2016).

Each structure is given as a SMILES string.

Assay type in all cases: biochemical
The target of one assay is T1, PI3Kα (Homo sapiens, UniProt P42336).
T1 construct: purchased Millipore Ltd (Billerica, Mass.)
The assay can be described thus: In vitro determination of the PI3K enzyme inhibitory activity in the cell free assay (ADP-Glo Kinase Assay), PI3Kα. The settings on record: ATP 50 μM, read-out: PI3K alpha inhibition. The method in brief: (§1)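 IC50 values came from four-parameter logistic fitting of ADP-Glo luminescence after 60 min kinase reactions at room temperature. ATP (final) was set per isoform: α 50 μM, β 100 μM, γ 30 μM, δ 80 μM. Substrates were phosphatidylinositol and phosphatidylserine (50 μM in 2× Tris pH 7.5 buffer), with human recombinant enzymes.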
On the technique in general: ADP-Glo turns the ADP formed in a reaction into a luminescent signal.

The target in the next assay is T2, PI3Kδ (Homo sapiens, UniProt O00329).
T2 construct: purchased Millipore Ltd (Billerica, Mass.)
T2 sequence (O00329 whole entry): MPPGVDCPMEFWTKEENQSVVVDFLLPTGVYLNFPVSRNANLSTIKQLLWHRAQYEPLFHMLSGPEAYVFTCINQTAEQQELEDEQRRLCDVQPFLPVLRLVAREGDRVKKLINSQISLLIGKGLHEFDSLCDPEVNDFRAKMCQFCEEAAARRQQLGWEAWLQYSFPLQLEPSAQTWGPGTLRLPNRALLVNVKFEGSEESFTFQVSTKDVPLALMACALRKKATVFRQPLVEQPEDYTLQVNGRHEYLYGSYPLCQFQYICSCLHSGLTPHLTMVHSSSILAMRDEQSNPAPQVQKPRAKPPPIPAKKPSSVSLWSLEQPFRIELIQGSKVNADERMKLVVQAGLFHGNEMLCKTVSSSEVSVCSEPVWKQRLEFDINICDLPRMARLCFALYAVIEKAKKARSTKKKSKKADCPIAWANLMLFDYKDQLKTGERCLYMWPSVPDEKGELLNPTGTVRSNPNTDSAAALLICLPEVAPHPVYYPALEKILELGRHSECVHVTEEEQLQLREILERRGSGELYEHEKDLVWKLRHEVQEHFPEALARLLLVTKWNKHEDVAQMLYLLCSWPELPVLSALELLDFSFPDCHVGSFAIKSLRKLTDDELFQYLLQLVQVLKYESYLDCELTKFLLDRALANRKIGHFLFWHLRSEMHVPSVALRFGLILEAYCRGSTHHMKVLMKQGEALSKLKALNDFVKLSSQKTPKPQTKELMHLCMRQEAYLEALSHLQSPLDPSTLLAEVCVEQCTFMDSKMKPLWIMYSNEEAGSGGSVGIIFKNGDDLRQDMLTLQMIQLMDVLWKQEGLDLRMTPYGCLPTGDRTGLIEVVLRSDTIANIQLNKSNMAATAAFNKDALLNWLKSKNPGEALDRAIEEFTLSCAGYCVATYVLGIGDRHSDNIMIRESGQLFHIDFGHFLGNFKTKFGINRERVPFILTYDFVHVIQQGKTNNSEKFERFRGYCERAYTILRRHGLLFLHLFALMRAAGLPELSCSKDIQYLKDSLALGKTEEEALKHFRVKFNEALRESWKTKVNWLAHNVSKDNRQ
T2 sequence (P27986 whole entry partner): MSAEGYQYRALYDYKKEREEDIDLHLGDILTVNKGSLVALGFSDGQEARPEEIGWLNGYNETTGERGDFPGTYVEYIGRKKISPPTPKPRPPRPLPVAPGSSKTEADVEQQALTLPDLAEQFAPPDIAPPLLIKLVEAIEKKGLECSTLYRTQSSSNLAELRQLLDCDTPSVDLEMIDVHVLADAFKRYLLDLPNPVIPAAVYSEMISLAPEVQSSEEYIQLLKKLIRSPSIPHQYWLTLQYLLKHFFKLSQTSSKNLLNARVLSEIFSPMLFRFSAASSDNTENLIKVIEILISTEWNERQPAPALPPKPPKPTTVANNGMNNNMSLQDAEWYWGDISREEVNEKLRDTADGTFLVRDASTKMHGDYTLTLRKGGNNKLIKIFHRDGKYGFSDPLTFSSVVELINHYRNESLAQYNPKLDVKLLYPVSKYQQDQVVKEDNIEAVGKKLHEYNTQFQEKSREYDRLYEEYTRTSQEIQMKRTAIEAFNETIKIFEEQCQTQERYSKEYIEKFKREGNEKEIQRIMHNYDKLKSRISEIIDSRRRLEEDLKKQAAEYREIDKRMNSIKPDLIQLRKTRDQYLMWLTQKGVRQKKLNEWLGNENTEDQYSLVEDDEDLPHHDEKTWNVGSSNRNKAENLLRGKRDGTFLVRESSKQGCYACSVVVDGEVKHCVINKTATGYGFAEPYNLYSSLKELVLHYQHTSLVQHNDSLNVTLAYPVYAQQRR
The assay can be described thus: In vitro determination of the PI3K enzyme inhibitory activity in the cell free assay (ADP-Glo Kinase Assay), PI3Kδ. The conditions noted are these: ATP 80 μM, read-out: PI3K delta inhibition. In a few lines: as §1

The target of the next assay is T3, PI3Kγ (Homo sapiens, UniProt P48736).
T3 construct: purchased Millipore Ltd (Billerica, Mass.)
T3 sequence (P48736 whole entry): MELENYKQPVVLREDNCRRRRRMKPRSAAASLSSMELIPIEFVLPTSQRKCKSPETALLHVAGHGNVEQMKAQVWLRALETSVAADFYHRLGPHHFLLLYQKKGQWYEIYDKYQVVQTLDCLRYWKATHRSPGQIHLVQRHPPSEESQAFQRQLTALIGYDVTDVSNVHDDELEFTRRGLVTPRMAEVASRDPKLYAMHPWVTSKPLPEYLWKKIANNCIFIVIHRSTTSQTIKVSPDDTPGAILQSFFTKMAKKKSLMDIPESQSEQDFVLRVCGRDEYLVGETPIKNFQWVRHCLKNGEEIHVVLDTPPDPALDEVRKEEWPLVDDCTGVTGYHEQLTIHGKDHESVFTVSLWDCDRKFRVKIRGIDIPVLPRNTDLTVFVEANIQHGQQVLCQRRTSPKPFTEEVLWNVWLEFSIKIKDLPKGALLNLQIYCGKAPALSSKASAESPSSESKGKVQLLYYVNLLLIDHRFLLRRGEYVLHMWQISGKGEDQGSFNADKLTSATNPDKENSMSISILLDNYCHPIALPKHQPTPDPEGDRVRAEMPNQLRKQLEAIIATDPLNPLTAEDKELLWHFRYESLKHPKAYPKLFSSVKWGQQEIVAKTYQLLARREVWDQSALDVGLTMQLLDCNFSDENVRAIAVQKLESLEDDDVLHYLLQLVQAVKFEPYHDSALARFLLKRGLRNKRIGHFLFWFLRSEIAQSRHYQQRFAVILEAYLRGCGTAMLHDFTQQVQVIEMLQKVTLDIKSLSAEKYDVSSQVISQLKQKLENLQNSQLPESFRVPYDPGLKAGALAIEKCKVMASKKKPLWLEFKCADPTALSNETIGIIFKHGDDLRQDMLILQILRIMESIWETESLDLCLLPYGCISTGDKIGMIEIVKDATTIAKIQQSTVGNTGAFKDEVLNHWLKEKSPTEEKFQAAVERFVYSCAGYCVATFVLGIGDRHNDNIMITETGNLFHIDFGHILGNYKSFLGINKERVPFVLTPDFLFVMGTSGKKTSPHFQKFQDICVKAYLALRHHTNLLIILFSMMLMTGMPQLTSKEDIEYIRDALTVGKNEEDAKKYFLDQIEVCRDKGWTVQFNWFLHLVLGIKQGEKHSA
The assay can be described thus: In vitro determination of the PI3K enzyme inhibitory activity in the cell free assay (ADP-Glo Kinase Assay), PI3Kγ. The conditions noted are these: ATP 30 μM, read-out: PI3K gamma inhibition. The method in brief: as §1

For another assay, the target named is T4, PI3Kβ (Homo sapiens, UniProt P42338).
T4 construct: purchased Millipore Ltd (Billerica, Mass.)
T4 sequence (P42338 whole entry): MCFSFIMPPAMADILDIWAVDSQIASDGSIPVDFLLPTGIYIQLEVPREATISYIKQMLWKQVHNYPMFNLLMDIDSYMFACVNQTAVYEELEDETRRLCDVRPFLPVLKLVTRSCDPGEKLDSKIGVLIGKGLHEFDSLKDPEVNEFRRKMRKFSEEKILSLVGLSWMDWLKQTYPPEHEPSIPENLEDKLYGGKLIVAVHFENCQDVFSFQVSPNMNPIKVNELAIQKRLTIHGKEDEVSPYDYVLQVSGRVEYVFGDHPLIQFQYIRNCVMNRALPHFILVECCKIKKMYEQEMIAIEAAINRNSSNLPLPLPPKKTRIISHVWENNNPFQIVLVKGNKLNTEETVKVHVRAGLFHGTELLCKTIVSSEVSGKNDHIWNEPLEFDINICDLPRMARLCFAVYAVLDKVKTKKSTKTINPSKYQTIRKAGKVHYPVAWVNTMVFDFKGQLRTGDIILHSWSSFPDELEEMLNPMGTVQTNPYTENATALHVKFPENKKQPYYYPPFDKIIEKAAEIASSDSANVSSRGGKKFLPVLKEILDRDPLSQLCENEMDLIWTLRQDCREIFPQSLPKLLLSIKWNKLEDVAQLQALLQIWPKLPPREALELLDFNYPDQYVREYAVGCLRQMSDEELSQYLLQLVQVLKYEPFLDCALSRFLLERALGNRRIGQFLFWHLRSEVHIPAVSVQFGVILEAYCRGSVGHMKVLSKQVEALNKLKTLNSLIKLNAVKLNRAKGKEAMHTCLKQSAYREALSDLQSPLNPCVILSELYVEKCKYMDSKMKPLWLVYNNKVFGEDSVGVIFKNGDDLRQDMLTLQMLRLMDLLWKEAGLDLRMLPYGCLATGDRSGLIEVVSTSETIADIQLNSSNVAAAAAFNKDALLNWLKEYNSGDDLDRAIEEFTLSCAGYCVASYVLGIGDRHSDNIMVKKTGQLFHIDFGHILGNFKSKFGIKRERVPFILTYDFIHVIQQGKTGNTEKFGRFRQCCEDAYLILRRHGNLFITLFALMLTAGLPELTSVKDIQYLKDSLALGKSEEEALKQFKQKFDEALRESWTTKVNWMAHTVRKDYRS
T4 sequence (P27986 whole entry partner): as the sequence (P27986 whole entry partner) above
Briefly: In vitro determination of the PI3K enzyme inhibitory activity in the cell free assay (ADP-Glo Kinase Assay), PI3Kβ. The conditions noted are these: ATP 100 μM, read-out: PI3K beta inhibition. In a few lines: as §1

T1 sequence (P42336 whole entry): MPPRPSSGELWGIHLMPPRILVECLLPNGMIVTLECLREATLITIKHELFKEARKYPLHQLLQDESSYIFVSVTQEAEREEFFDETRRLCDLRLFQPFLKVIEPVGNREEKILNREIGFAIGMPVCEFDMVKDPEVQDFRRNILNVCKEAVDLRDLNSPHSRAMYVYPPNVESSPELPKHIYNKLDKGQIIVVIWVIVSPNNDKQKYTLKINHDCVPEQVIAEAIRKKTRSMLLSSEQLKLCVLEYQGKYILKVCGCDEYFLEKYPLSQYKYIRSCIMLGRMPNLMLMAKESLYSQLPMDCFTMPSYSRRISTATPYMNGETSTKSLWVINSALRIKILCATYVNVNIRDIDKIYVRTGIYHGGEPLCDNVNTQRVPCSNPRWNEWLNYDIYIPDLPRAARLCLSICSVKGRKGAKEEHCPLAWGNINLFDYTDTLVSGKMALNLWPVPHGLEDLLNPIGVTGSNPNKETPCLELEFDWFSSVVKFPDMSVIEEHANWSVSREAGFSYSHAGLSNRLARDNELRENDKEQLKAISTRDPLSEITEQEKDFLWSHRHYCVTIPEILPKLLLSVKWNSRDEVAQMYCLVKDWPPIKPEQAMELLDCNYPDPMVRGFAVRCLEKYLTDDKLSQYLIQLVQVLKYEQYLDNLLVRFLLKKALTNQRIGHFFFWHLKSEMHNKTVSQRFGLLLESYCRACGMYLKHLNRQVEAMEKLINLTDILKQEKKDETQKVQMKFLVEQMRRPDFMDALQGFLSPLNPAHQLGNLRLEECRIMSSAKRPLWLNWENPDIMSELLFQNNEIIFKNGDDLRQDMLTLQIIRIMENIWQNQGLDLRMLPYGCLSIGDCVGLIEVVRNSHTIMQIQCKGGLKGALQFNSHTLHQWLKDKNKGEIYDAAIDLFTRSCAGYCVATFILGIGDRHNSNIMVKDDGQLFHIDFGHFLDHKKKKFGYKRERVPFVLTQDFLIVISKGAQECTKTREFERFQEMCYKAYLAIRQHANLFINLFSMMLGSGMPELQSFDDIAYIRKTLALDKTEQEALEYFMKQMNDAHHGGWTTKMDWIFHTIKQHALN
T1 sequence (P27986 whole entry partner): as the sequence (P27986 whole entry partner) above

Take `Cc1cc(-c2c(C(C)n3nc(-c4cc(O)cc(F)c4)c4c(N)ncnc43)cc3ccccn23)ccn1` (centres unmarked) [Example 106, 3-(4-amino-1-{1-[3-(2-methylpyridin-4-yl)indolizin-2-yl]ethyl}-1H-pyrazolo[3,4-d]pyrimidin-3-yl)-5-fluorophenol]: the IC50 is > 1000 nM on PI3Kα, < 10 nM on PI3Kδ, 10 to 1000 nM on PI3Kγ and 10 to 1000 nM on PI3Kβ.
Consider `Cc1cc(-c2c(C(C)n3nc(-c4cncc(O)c4)c4c(N)ncnc43)cc3ccccn23)ccn1` (centres unmarked) [Example 107, 5-(4-amino-1-{1-[3-(2-methylpyridin-4-yl)indolizin-2-yl]ethyl}-1H-pyrazolo[3,4-d]pyrimidin-3-yl)pyridin-3-ol], for which the IC50 is > 1000 nM on PI3Kα, < 10 nM on PI3Kδ, 10 to 1000 nM at PI3Kγ and 10 to 1000 nM on PI3Kβ.
As for `CC(c1cc2ccccn2c1-c1ccc(CN2CCOCC2)cn1)n1nc(-c2cc(O)cc(F)c2)c2c(N)ncnc21` (centres unmarked) [Example 108, 3-[4-amino-1-(1-{3-[5-(morpholin-4-ylmethyl)pyridin-2-yl]indolizin-2-yl}ethyl)-1H-pyrazolo[3,4-d]pyrimidin-3-yl]-5-fluorophenol], the IC50 on PI3Kα is > 1000 nM; on PI3Kδ it was < 10 nM; at PI3Kγ, > 1000 nM; on PI3Kβ it was 10 to 1000 nM.
On to `CC(c1cc2ccccn2c1-c1ccc(CN(C)C)cn1)n1nc(-c2cc(O)cc(F)c2)c2c(N)ncnc21` (centres unmarked) [Example 109, 3-{4-amino-1-[1-(3-{5-[(dimethylamino)-methyl]pyridin-2-yl}indolizin-2-yl)ethyl]-1H-pyrazolo[3,4-d]pyrimidin-3-yl}-5-fluorophenol], for which the IC50 at PI3Kα is > 1000 nM; at PI3Kδ, 10 to 1000 nM; on PI3Kγ it was > 1000 nM; on PI3Kβ, 10 to 1000 nM.
Turning to `CC(c1cc2ccccn2c1-c1cccc(CN2CCOCC2)n1)n1nc(-c2cc(O)cc(F)c2)c2c(N)ncnc21` (centres unmarked) [Example 110, 3-[4-amino-1-(1-{3-[6-(morpholin-4-ylmethyl)pyridin-2-yl]indolizin-2-yl}ethyl)-1H-pyrazolo[3,4-d]-pyrimidin-3-yl]-5-fluorophenol], the IC50 at PI3Kα is > 1000 nM; on PI3Kδ, < 10 nM; at PI3Kγ, > 1000 nM; on PI3Kβ, 10 to 1000 nM.
With `CC(c1cc2ccccn2c1-c1cc(CN2CCOCC2)ccn1)n1nc(-c2cc(O)cc(F)c2)c2c(N)ncnc21` (centres unmarked) [Example 111, 3-[4-amino-1-(1-{3-[4-(morpholin-4-ylmethyl)pyridin-2-yl]indolizin-2-yl}ethyl)-1H-pyrazolo[3,4-d]-pyrimidin-3-yl]-5-fluorophenol], the IC50 at PI3Kα is > 1000 nM; on PI3Kδ it was < 10 nM; on PI3Kγ it was 10 to 1000 nM; at PI3Kβ, 10 to 1000 nM.
On to `CC(c1cc2ccccn2c1-c1cc(CN(C)C)ccn1)n1nc(-c2cc(O)cc(F)c2)c2c(N)ncnc21` (centres unmarked) [Example 112, 3-{4-amino-1-[1-(3-{4-[(dimethylamino)-methyl]pyridin-2-yl}indolizin-2-yl)-ethyl]-1H-pyrazolo[3,4-d]pyrimidin-3-yl}-5-fluorophenol], for which the IC50 at PI3Kα was 10 to 1000 nM; at PI3Kδ, < 10 nM; at PI3Kγ, 10 to 1000 nM; at PI3Kβ, 10 to 1000 nM.
For the compound `CC(c1cc2ccccn2c1-c1ccc(CN2CCCC2)cn1)n1nc(-c2cc(O)cc(F)c2)c2c(N)ncnc21` (centres unmarked) [Example 113, 3-[4-amino-1-(1-{3-[5-(pyrrolidin-1-ylmethyl)pyridin-2-yl]indolizin-2-yl}ethyl)-1H-pyrazolo[3,4-d]pyrimidin-3-yl]-5-fluorophenol], the IC50 on PI3Kα was > 1000 nM; at PI3Kδ, < 10 nM; at PI3Kγ, > 1000 nM; on PI3Kβ, 10 to 1000 nM.
For `CC(c1cc2ccccn2c1-c1ccc(CN2CCN(C)CC2)cn1)n1nc(-c2cc(O)cc(F)c2)c2c(N)ncnc21` (centres unmarked) [Example 114, 3-{4-amino-1-[1-(3-{5-[(4-methylpiperazin-1-yl)methyl]pyridin-2-yl}indolizin-2-yl)ethyl]-1H-pyrazolo-[3,4-d]pyrimidin-3-yl}-5-fluorophenol], the IC50 on PI3Kα was > 1000 nM; at PI3Kδ, < 10 nM; at PI3Kγ, > 1000 nM; at PI3Kβ it was 10 to 1000 nM.
Consider `CC(c1cc2ccccn2c1-c1cccc(CN2CCN(C)CC2)n1)n1nc(-c2cc(O)cc(F)c2)c2c(N)ncnc21` (centres unmarked) [Example 115, 3-{4-amino-1-[1-(3-{6-[(4-methylpiperazin-1-yl)methyl]pyridin-2-yl}indolizin-2-yl)ethyl]-1H-pyrazolo-[3,4-d]pyrimidin-3-yl}-5-fluorophenol], for which the IC50 on PI3Kα, at PI3Kδ, at PI3Kγ and on PI3Kβ was 10 to 1000 nM each time.
In the case of `CC(c1cc2ccccn2c1-c1cc(CN2CCN(C)CC2)ccn1)n1nc(-c2cc(O)cc(F)c2)c2c(N)ncnc21` (centres unmarked) [Example 116, 3-{4-amino-1-[1-(3-{4-[(4-methylpiperazin-1-yl)methyl]pyridin-2-yl}indolizin-2-yl)ethyl]-1H-pyrazolo-[3,4-d]pyrimidin-3-yl}-5-fluorophenol], the IC50 at PI3Kα was 10 to 1000 nM; on PI3Kδ, < 10 nM; on PI3Kγ, 10 to 1000 nM; at PI3Kβ, 10 to 1000 nM.
Turning to `CC(c1cc2ccccn2c1-c1ccc(CN(CCO)CCO)cn1)n1nc(-c2cc(O)cc(F)c2)c2c(N)ncnc21` (centres unmarked) [Example 117, 3-(4-amino-1-{1-[3-(5-{[bis(2-hydroxyethyl)amino]methyl}pyridin-2-yl)indolizin-2-yl]ethyl}-1H-pyrazolo[3,4-d]pyrimidin-3-yl)-5-fluorophenol], the IC50 is > 1000 nM on PI3Kα, < 10 nM at PI3Kδ, > 1000 nM at PI3Kγ and 10 to 1000 nM on PI3Kβ.
Consider `CC(c1cc2ccccn2c1-c1ccc(OCCN2CCOCC2)cn1)n1nc(-c2cc(O)cc(F)c2)c2c(N)ncnc21` (centres unmarked) [Example 119, 3-{4-amino-1-[1-(3-{5-[2-(morpholin-4-yl)ethoxy]pyridin-2-yl}indolizin-2-yl)ethyl]-1H-pyrazolo[3,4-d]-pyrimidin-3-yl}-5-fluorophenol], for which the IC50 at PI3Kα was > 1000 nM; at PI3Kδ, < 10 nM; at PI3Kγ, > 1000 nM; at PI3Kβ, 10 to 1000 nM.
Regarding `CC(c1cc2ccccn2c1-c1ccc(=O)n(CCN2CCOCC2)c1)n1nc(-c2cc(O)cc(F)c2)c2c(N)ncnc21` (centres unmarked) [Example 120, 5-(2-{1-[4-amino-3-(3-fluoro-5-hydroxyphenyl)-1H-pyrazolo[3,4-d]pyrimidin-1-yl]ethyl}-indolizin-3-yl)-1-[2-(morpholin-4-yl)ethyl]-1,2-dihydropyridin-2-one], the IC50 was > 1000 nM on PI3Kα, < 10 nM at PI3Kδ, 10 to 1000 nM on PI3Kγ and > 1000 nM on PI3Kβ.
Turning to `CC(c1cc2ccccn2c1-c1ccn(CCN2CCOCC2)c(=O)c1)n1nc(-c2cc(O)cc(F)c2)c2c(N)ncnc21` (centres unmarked) [Example 121, 4-(2-{1-[4-amino-3-(3-fluoro-5-hydroxyphenyl)-1H-pyrazolo[3,4-d]pyrimidin-1-yl]ethyl}-indolizin-3-yl)-1-[2-(morpholin-4-yl)ethyl]-1,2-dihydropyridin-2-one], the IC50 at PI3Kα was > 1000 nM; at PI3Kδ, < 10 nM; on PI3Kγ it was 10 to 1000 nM; at PI3Kβ it was 10 to 1000 nM.
Turning to `CC(c1cc2ccccn2c1-c1ccn(CCN2CCOCC2)c(=O)c1)n1nc(-c2cncc(O)c2)c2c(N)ncnc21` (centres unmarked) [Example 122, 4-(2-{1-[4-amino-3-(5-hydroxypyridin-3-yl)-1H-pyrazolo[3,4-d]pyrimidin-1-yl]ethyl}indolizin-3-yl)-1-[2-(morpholin-4-yl)ethyl]-1,2-dihydropyridin-2-one], the IC50 on PI3Kα was > 1000 nM; on PI3Kδ, < 10 nM; on PI3Kγ, > 1000 nM; at PI3Kβ it was 10 to 1000 nM.
With `CC(c1cc2ccccn2c1-c1ccccc1C#N)n1nc(-c2cc(O)cc(F)c2)c2c(N)ncnc21` (centres unmarked) [Example 123, 2-(2-{1-[4-amino-3-(3-fluoro-5-hydroxyphenyl)-1H-pyrazolo[3,4-d]pyrimidin-1-yl]-ethyl}indolizin-3-yl)benzonitrile], the IC50 is > 1000 nM at PI3Kα, < 10 nM on PI3Kδ, > 1000 nM on PI3Kγ and 10 to 1000 nM at PI3Kβ.
Take `CC(c1c(C(F)(F)F)c2ccccn2c1-c1ccccn1)n1nc(-c2cc(O)cc(F)c2)c2c(N)ncnc21` (centres unmarked) [Example 124, 3-(4-amino-1-{1-[3-(pyridin-2-yl)-1-(trifluoromethyl)indolizin-2-yl]ethyl}-1H-pyrazolo[3,4-d]pyrimidin-3-yl)-5-fluorophenol]: the IC50 on PI3Kα is > 1000 nM; on PI3Kδ, < 10 nM; at PI3Kγ, > 1000 nM; on PI3Kβ it was 10 to 1000 nM.
As for `CC(c1cc2ccccn2c1-c1ccc(C(=O)N2CCOCC2)cn1)n1nc(-c2cc(O)cc(F)c2)c2c(N)ncnc21` (centres unmarked) [Example 125, 3-[4-amino-1-(1-{3-[5-(morpholine-4-carbonyl)pyridin-2-yl]indolizin-2-yl}ethyl)-1H-pyrazolo[3,4-d]-pyrimidin-3-yl]-5-fluorophenol], the IC50 on PI3Kα is 10 to 1000 nM; at PI3Kδ, < 10 nM; at PI3Kγ, 10 to 1000 nM; at PI3Kβ it was 10 to 1000 nM.
Turning to `CC(c1c(C#N)c2ccccn2c1-c1ccccn1)n1nc(-c2cc(O)cc(F)c2)c2c(N)ncnc21` (centres unmarked) [Example 126, 2-{1-[4-amino-3-(3-fluoro-5-hydroxyphenyl)-1H-pyrazolo[3,4-d]pyrimidin-1-yl]-ethyl}-3-(pyridin-2-yl)indolizine-1-carbonitrile], the IC50 at PI3Kα was 10 to 1000 nM; at PI3Kδ it was < 10 nM; at PI3Kγ, 10 to 1000 nM; on PI3Kβ it was 10 to 1000 nM.
